Laboratory results published in BindingDB's records for doi:10.1021/jm9508696 (Sandoz Research Institute, 1996).

Each compound was assayed against T1, Dimer of Gag-Pol polyprotein [489-587] (Human immunodeficiency virus 1, UniProt P12497) (assay: Protease Inhibition Assay). Settings: not given.
T1 construct: 489-587
Experimental: Enzymatic activity was measured by following cleavage of the substrate H-Lys-Ala-Arg-Val-Leu-pNph-Glu-Ala-Nle-NH2. Products of the cleavage reaction were quantified by HPLC detection
For `COc1ccc(CN[C@@H](C(=O)N[C@H]2c3ccccc3C[C@H]2O)[C@H](O)[C@H](Cc2ccccc2)NC(=O)[C@@H](NC(=O)CCc2ccccc2O)C(C)(C)C)cc1` [(2R,3R,4S)-3-hydroxy-N-[(1S,2R)-2-hydroxy-2,3-dihydro-1H-inden-1-yl]-4-[(2S)-2-[3-(2-hydroxyphenyl)propanamido]-3,3-dimethylbutanamido]-2-{[(4-methoxyphenyl)methyl]amino}-5-phenylpentanamide], the Ki was 13 nM.
Compound `COc1ccc(CN[C@@H](C(=O)N[C@H]2c3ccccc3C[C@H]2O)[C@H](O)[C@H](Cc2ccccc2)NC(=O)[C@@H](NC(=O)CCc2ccc(OC)c(O)c2)C(C)(C)C)cc1` [(2R,3R,4S)-3-hydroxy-N-[(1S,2R)-2-hydroxy-2,3-dihydro-1H-inden-1-yl]-4-[(2S)-2-[3-(3-hydroxy-4-methoxyphenyl)propanamido]-3,3-dimethylbutanamido]-2-{[(4-methoxyphenyl)methyl]amino}-5-phenylpentanamide] has a Ki of 7.7 nM.
`COc1ccc(CN[C@@H](C(=O)N[C@H]2c3ccccc3C[C@H]2O)[C@H](O)[C@H](Cc2ccccc2)NC(=O)[C@@H](NC(=O)/C=C/c2ccc(OC)cc2O)C(C)(C)C)cc1` [(2R,3R,4S)-3-hydroxy-N-[(1S,2R)-2-hydroxy-2,3-dihydro-1H-inden-1-yl]-4-[(2S)-2-[(2E)-3-(2-hydroxy-4-methoxyphenyl)prop-2-enamido]-3,3-dimethylbutanamido]-2-{[(4-methoxyphenyl)methyl]amino}-5-phenylpentanamide] showed a Ki of 18 nM.
`COc1ccc(CN[C@@H](C(=O)N[C@H]2c3ccccc3C[C@H]2O)[C@H](O)[C@H](Cc2ccccc2)NC(=O)[C@@H](NC(=O)/C=C/c2ccc(OC)c(O)c2)C(C)(C)C)cc1` [(2R,3R,4S)-3-hydroxy-N-[(1S,2R)-2-hydroxy-2,3-dihydro-1H-inden-1-yl]-4-[(2S)-2-[(2E)-3-(3-hydroxy-4-methoxyphenyl)prop-2-enamido]-3,3-dimethylbutanamido]-2-{[(4-methoxyphenyl)methyl]amino}-5-phenylpentanamide] was tested, and the Ki was 5.8 nM.
`COc1ccc(CN[C@@H](C(=O)N[C@H]2c3ccccc3C[C@H]2O)[C@H](O)[C@H](Cc2ccccc2)NC(=O)[C@@H](NC(=O)CSc2nncn2C)C(C)(C)C)cc1` [(2R,3R,4S)-4-[(2S)-3,3-dimethyl-2-{2-[(4-methyl-4H-1,2,4-triazol-3-yl)sulfanyl]acetamido}butanamido]-3-hydroxy-N-[(1S,2R)-2-hydroxy-2,3-dihydro-1H-inden-1-yl]-2-{[(4-methoxyphenyl)methyl]amino}-5-phenylpentanamide] showed a Ki of 5.8 nM.
`COc1ccc(CN[C@@H](C(=O)N[C@H]2c3ccccc3C[C@H]2O)[C@H](O)[C@H](Cc2ccccc2)NC(=O)[C@@H](NC(=O)CSc2nnc(C)s2)C(C)(C)C)cc1` [(2R,3R,4S)-4-[(2S)-3,3-dimethyl-2-{2-[(5-methyl-1,3,4-thiadiazol-2-yl)sulfanyl]acetamido}butanamido]-3-hydroxy-N-[(1S,2R)-2-hydroxy-2,3-dihydro-1H-inden-1-yl]-2-{[(4-methoxyphenyl)methyl]amino}-5-phenylpentanamide] showed a Ki of 8 nM.
`CC(C)(C)[C@H](NC(=O)OCc1ccccc1)C(=O)N[C@@H](Cc1ccccc1)[C@@H](O)[C@@H](NCc1ccc(CNC(=O)CCc2nc3ccccc3[nH]2)cc1)C(=O)N[C@H]1c2ccccc2C[C@H]1O` [benzyl N-[(1S)-1-{[(2S,3R,4R)-4-{[(4-{[3-(1H-1,3-benzodiazol-2-yl)propanamido]methyl}phenyl)methyl]amino}-3-hydroxy-4-{[(1S,2R)-2-hydroxy-2,3-dihydro-1H-inden-1-yl]carbamoyl}-1-phenylbutan-2-yl]carbamoyl}-2,2-dimethylpropyl]carbamate] was tested, and the Ki was 4.1 nM.
Compound `COc1ccc(CN[C@@H](C(=O)N[C@H]2c3ccccc3C[C@H]2O)[C@H](O)[C@H](Cc2ccccc2)NC(=O)[C@@H](NC(=O)OC(C)(C)C)C(C)(C)C)cc1` [tert-butyl N-[(1S)-1-{[(2S,3R,4R)-3-hydroxy-4-{[(1S,2R)-2-hydroxy-2,3-dihydro-1H-inden-1-yl]carbamoyl}-4-{[(4-methoxyphenyl)methyl]amino}-1-phenylbutan-2-yl]carbamoyl}-2,2-dimethylpropyl]carbamate] has a Ki of 210 nM.

Same assay, conditions: pH 6.25; 37 °C
`COc1ccc(CN[C@@H](C(=O)N[C@H]2c3ccccc3C[C@H]2O)[C@H](O)[C@H](Cc2ccccc2)NC(=O)C(CC(=O)O)NC(=O)OCc2ccccc2)cc1` (stereo partly drawn) [3-{[(benzyloxy)carbonyl]amino}-3-{[(2S,3R,4R)-3-hydroxy-4-{[(1S,2R)-2-hydroxy-2,3-dihydro-1H-inden-1-yl]carbamoyl}-4-{[(4-methoxyphenyl)methyl]amino}-1-phenylbutan-2-yl]carbamoyl}propanoic acid] showed a Ki of 22 nM.
For `COc1ccc(CN[C@@H](C(=O)N[C@H]2c3ccccc3C[C@H]2O)[C@H](O)[C@H](Cc2ccccc2)NC(=O)OC(C)(C)C)cc1` [(2R,3S,4S,1 S,2 R)-4-[[(1,1-Dimethylethoxy0carbonyl]amino]-3-hydroxy-2-[(4-methoxybenzyl)amino]-5-phenylpentan(2-hydroxy-1 indanyl)amide], the Ki was 65 nM.
Compound `CCC(C)C(NC(=O)OCc1ccccc1)C(=O)N[C@@H](Cc1ccccc1)[C@@H](O)[C@@H](NCc1ccc(OC)cc1)C(=O)N[C@H]1c2ccccc2C[C@H]1O` (stereo partly drawn) [benzyl N-(1-{[(2S,3R,4R)-3-hydroxy-4-{[(1S,2R)-2-hydroxy-2,3-dihydro-1H-inden-1-yl]carbamoyl}-4-{[(4-methoxyphenyl)methyl]amino}-1-phenylbutan-2-yl]carbamoyl}-2-methylbutyl)carbamate] has a Ki of 8.2 nM.
Compound `COc1ccc(CN[C@@H](C(=O)N[C@H]2c3ccccc3C[C@H]2O)[C@H](O)[C@H](Cc2ccccc2)NC(=O)C(NC(=O)OCc2ccccc2)C(C)C)cc1` (stereo partly drawn) [benzyl N-(1-{[(2S,3R,4R)-3-hydroxy-4-{[(1S,2R)-2-hydroxy-2,3-dihydro-1H-inden-1-yl]carbamoyl}-4-{[(4-methoxyphenyl)methyl]amino}-1-phenylbutan-2-yl]carbamoyl}-2-methylpropyl)carbamate] has a Ki of 8.1 nM.
With `COc1ccc(CN[C@@H](C(=O)N[C@H]2c3ccccc3C[C@H]2O)[C@H](O)[C@H](Cc2ccccc2)NC(=O)C(CC(N)=O)NC(=O)OCc2ccccc2)cc1` (stereo partly drawn) [benzyl N-(2-carbamoyl-1-{[(2S,3R,4R)-3-hydroxy-4-{[(1S,2R)-2-hydroxy-2,3-dihydro-1H-inden-1-yl]carbamoyl}-4-{[(4-methoxyphenyl)methyl]amino}-1-phenylbutan-2-yl]carbamoyl}ethyl)carbamate] the Ki was 15 nM.
With `CC(C)(C)OC(=O)N[C@@H](Cc1ccccc1)[C@@H](O)[C@@H](NCc1ccc(CNC(=O)Nc2ccccc2)cc1)C(=O)N[C@H]1c2ccccc2C[C@H]1O` [tert-butyl N-[(2S,3R,4R)-3-hydroxy-4-{[(1S,2R)-2-hydroxy-2,3-dihydro-1H-inden-1-yl]carbamoyl}-1-phenyl-4-{[(4-{[(phenylcarbamoyl)amino]methyl}phenyl)methyl]amino}butan-2-yl]carbamate] the Ki was 33 nM.
Work on `CC(C)(C)OC(=O)N[C@@H](Cc1ccccc1)[C@@H](O)[C@@H](NCc1ccc(OCCO)cc1)C(=O)N[C@H]1c2ccccc2C[C@H]1O` [tert-butyl N-[(2S,3R,4R)-3-hydroxy-4-{[(1S,2R)-2-hydroxy-2,3-dihydro-1H-inden-1-yl]carbamoyl}-4-({[4-(2-hydroxyethoxy)phenyl]methyl}amino)-1-phenylbutan-2-yl]carbamate] yielded a Ki of 80 nM.
For `CC(C)(C)OC(=O)N[C@@H](Cc1ccccc1)[C@@H](O)[C@@H](NCc1ccc(OCCN2CCOCC2)cc1)C(=O)N[C@H]1c2ccccc2C[C@H]1O` [tert-butyl N-[(2S,3R,4R)-3-hydroxy-4-{[(1S,2R)-2-hydroxy-2,3-dihydro-1H-inden-1-yl]carbamoyl}-4-[({4-[2-(morpholin-4-yl)ethoxy]phenyl}methyl)amino]-1-phenylbutan-2-yl]carbamate], the Ki was 130 nM.
In the case of `CC(C)(C)OC(=O)N[C@@H](Cc1ccccc1)[C@@H](O)[C@@H](NCc1ccccc1)C(=O)NCc1ccccc1` [tert-butyl N-[(2S,3R,4R)-4-(benzylamino)-4-(benzylcarbamoyl)-3-hydroxy-1-phenylbutan-2-yl]carbamate], the Ki is reported as 2500 nM.
Compound `CC(C)(C)OC(=O)N[C@@H](Cc1ccccc1)[C@@H](O)[C@@H](NCc1ccc(OCCO)cc1)C(=O)NCc1ccccc1` [tert-butyl N-[(2S,3R,4R)-4-(benzylcarbamoyl)-3-hydroxy-4-({[4-(2-hydroxyethoxy)phenyl]methyl}amino)-1-phenylbutan-2-yl]carbamate] has a Ki of 1200 nM.
In the case of `COc1ccc(CN[C@@H](C(=O)N[C@H](C(=O)NCc2nc3ccccc3[nH]2)C(C)C)[C@H](O)[C@H](Cc2ccccc2)NC(=O)OC(C)(C)C)cc1` [tert-butyl N-[(2S,3R,4R)-4-{[(1S)-1-[(1H-1,3-benzodiazol-2-ylmethyl)carbamoyl]-2-methylpropyl]carbamoyl}-3-hydroxy-4-{[(4-methoxyphenyl)methyl]amino}-1-phenylbutan-2-yl]carbamate], the Ki is reported as 7.7 nM.
Compound `CCOc1ccc(CN[C@@H](C(=O)N[C@H]2c3ccccc3C[C@H]2O)[C@H](O)[C@H](Cc2ccccc2)NC(=O)OC(C)(C)C)cc1` [tert-butyl N-[(2S,3R,4R)-4-{[(4-ethoxyphenyl)methyl]amino}-3-hydroxy-4-{[(1S,2R)-2-hydroxy-2,3-dihydro-1H-inden-1-yl]carbamoyl}-1-phenylbutan-2-yl]carbamate] has a Ki of 92 nM.
`CC(C)(C)OC(=O)N[C@@H](Cc1ccccc1)[C@@H](O)[C@@H](NCc1ccc(CNC(=O)CCc2nc3ccccc3[nH]2)cc1)C(=O)NCc1ccccc1` [tert-butyl N-[(2S,3R,4R)-4-{[(4-{[3-(1H-1,3-benzodiazol-2-yl)propanamido]methyl}phenyl)methyl]amino}-4-(benzylcarbamoyl)-3-hydroxy-1-phenylbutan-2-yl]carbamate] showed a Ki of 680 nM.
